Key:
oilseed rape = assay: Test D postemergence; assay type: in vivo, Brassica napus
Source text: (§1) Seeds of plant species selected from bluegrass (annual bluegrass, Poa annua), blackgrass (Alopecurus myosuroides), canarygrass (littleseed canarygrass, Phalaris minor), chickweed (common chickweed, Stellaria media), galium (catchweed bedstraw, Galium aparine), bromegrass, downy (downy bromegrass, Bromus tectorum), field poppy (Papaver rhoeas), field violet (Viola arvensis), green foxtail (Setaria viridis), deadnettle (henbit deadnettle, Lamium amplexicaule), Italian ryegrass (Lolium multiflorum), kochia (Kochia scoparia), lambsquarters (Chenopodium album), oilseed rape (Brassica napus), pigweed (Amaranthus retroflexus), chamomile (scentless chamomile, Matricaria inodora), Russian thistle (Salsola kali), speedwell (bird's-eye speedwell, Veronica persica), spring barley (Hordeum vulgare), spring wheat (Triticum aestivum), wild buckwheat (Polygonum convolvulus), wild mustard (Sinapis arvensis), wild oat (Avena fatua), wild radish (Raphanus raphanistrum), windgrass (Apera spica-venti), winter barley (Hordeum vulgare), and winter wheat (Triticum aestivum) were planted into a silt loam soil and treated preemergence with test chemicals formulated in a non-phytotoxic solvent mixture which included a surfactant.
(§2) At the same time, these species were planted in pots containing Redi-Earth® planting medium (Scotts Company, 14111 Scottslawn Road, Marysville, Ohio 43041) comprising spaghnum peat moss, vermiculite, wetting agent and starter nutrients and treated with postemergence applications of the test chemicals formulated in the same manner. Plants ranged in height from 2 to 18 cm (1- to 4-leaf stage). Treated plants and controls were maintained in a controlled growth environment for 7 to 21 days after which time all species were compared to controls and visually evaluated. Plant response ratings, summarized in Table D, are based on a scale of 0 to 100 where 0 is no effect and 100 is complete control. A dash (-) response means no test result.

Italian ryegrass = assay: Test D preemergence; assay type: in vivo, Lolium multiflorum
Source text: as §1, §2

wild oat = assay: Test D preemergence; assay type: in vivo, Avena fatua
Source text: as §1, §2

field violet = assay: Test D postemergence; assay type: in vivo, Viola arvensis
Source text: as §1, §2

speedwell = assay: Test D postemergence; assay type: in vivo, Veronica persica
Source text: as §1, §2

spring barley = assay: Test D postemergence; assay type: in vivo, Hordeum vulgare
Source text: as §1, §2

winter barley = assay: Test D postemergence; assay type: in vivo, Hordeum vulgare
Source text: as §1, §2

deadnettle = assay: Test D postemergence; assay type: in vivo, Lamium amplexicaule
Source text: as §1, §2

blackgrass = assay: Test D preemergence; assay type: in vivo, Alopecurus myosuroides
Source text: as §1, §2

[1] = 31 g ai/ha, scale 0 to 100 (0 no effect, 100 complete control)
[2] = 62 g ai/ha, scale 0 to 100 (0 no effect, 100 complete control)
[3] = 125 g ai/ha, scale 0 to 100 (0 no effect, 100 complete control)
[4] = 16 g ai/ha, scale 0 (no effect) to 100 (complete control)
[5] = Postemergence, 62 g ai/ha, scale 0 to 100 (0 no effect, 100 complete control)
[6] = Postemergence, 31 g ai/ha, scale 0 to 100 (0 no effect, 100 complete control)
[7] = Postemergence, 125 g ai/ha, scale 0 to 100 (0 no effect, 100 complete control)
[8] = postemergence, 16 g ai/ha, scale 0 to 100, 0 no effect, 100 complete control

Structure (SMILES): Fc1cccc(Oc2ncc(Cl)cn2)c1-n1cc(C(F)F)nn1 [Compound 141, 5-chloro-2-[2-[4-(difluoromethyl)-1H-1,2,3-triazol-1-yl]-3-fluorophenoxy]pyrimidine]
- plant injury at 16 g/ha (oilseed rape; Brassica napus, post-emergence, 16 g ai/ha, scale 0-100, read-out: Plant response rating, Oilseed Rape): 75%
- plant injury at 31 g/ha (oilseed rape; Brassica napus, post-emergence, 31 g ai/ha, scale 0 to 100 (0 no effect, 100 complete control), read-out: Plant response rating, Oilseed Rape): 95%
- plant injury at 62 g/ha (oilseed rape; Brassica napus, post-emergence, 62 g ai/ha, scale 0 to 100 (0 no effect, 100 complete control), read-out: Plant response rating, Oilseed Rape): 100%
- plant injury at 125 g/ha (oilseed rape; Brassica napus, post-emergence, 125 g ai/ha, scale 0 to 100 (0 no effect, 100 complete control), read-out: Plant response rating, Oilseed Rape): 100%
- pest or weed control at 16 g/ha (Italian ryegrass; Lolium multiflorum, pre-emergence, 16 g ai/ha, scale 0 (no effect) to 100 (complete control), read-out: Plant response rating, Ryegrass, Italian): 35%
- pest or weed control at 31 g/ha (Italian ryegrass; Lolium multiflorum, pre-emergence, 31 g ai/ha, scale 0 (no effect) to 100 (complete control), read-out: Plant response rating, Ryegrass, Italian): 55%
- pest or weed control at 62 g/ha (Italian ryegrass; Lolium multiflorum, pre-emergence, 62 g ai/ha, scale 0-100, read-out: Plant response rating, Ryegrass, Italian): 70%
- pest or weed control at 125 g/ha (Italian ryegrass; Lolium multiflorum, pre-emergence, 125 g ai/ha, scale 0-100, read-out: Plant response rating, Ryegrass, Italian): 75%
- pest or weed control at 16 g/ha (wild oat; Avena fatua, pre-emergence, 16 g ai/ha, scale 0 (no effect) to 100 (complete control), read-out: Plant response rating, Oat, Wild): 30%
- pest or weed control at 31 g/ha (wild oat; Avena fatua, pre-emergence, 31 g ai/ha, scale 0-100, read-out: Plant response rating, Oat, Wild): 65%
- pest or weed control at 62 g/ha (wild oat; Avena fatua, pre-emergence, 62 g ai/ha, scale 0-100, read-out: Plant response rating, Oat, Wild): 80%
- pest or weed control at 125 g/ha (wild oat; Avena fatua, pre-emergence, 125 g ai/ha, scale 0-100, read-out: Plant response rating, Oat, Wild): 98%
- pest or weed control at 16 g/ha (field violet; Viola arvensis, post-emergence, 16 g ai/ha, scale 0-100, read-out: Plant response rating, Field Violet): 45%
- pest or weed control at 31 g/ha (field violet; Viola arvensis, post-emergence, 31 g ai/ha, scale 0 to 100 (0 no effect, 100 complete control), read-out: Plant response rating, Field Violet): 75%
- pest or weed control at 62 g/ha (field violet; Viola arvensis, post-emergence, 62 g ai/ha, scale 0 to 100 (0 no effect, 100 complete control), read-out: Plant response rating, Field Violet): 85%
- pest or weed control at 125 g/ha (field violet; Viola arvensis, post-emergence, 125 g ai/ha, scale 0 to 100 (0 no effect, 100 complete control), read-out: Plant response rating, Field Violet): 95%
- pest or weed control at 16 g/ha (speedwell; Veronica persica, post-emergence, 16 g ai/ha, scale 0-100, read-out: Plant response rating, Speedwell): 100%
- pest or weed control at 31 g/ha (speedwell; Veronica persica, post-emergence, 31 g ai/ha, scale 0 to 100 (0 no effect, 100 complete control), read-out: Plant response rating, Speedwell): 100%
- pest or weed control at 62 g/ha (speedwell; Veronica persica, post-emergence, 62 g ai/ha, scale 0 to 100 (0 no effect, 100 complete control), read-out: Plant response rating, Speedwell): 100%
- pest or weed control at 125 g/ha (speedwell; Veronica persica, post-emergence, 125 g ai/ha, scale 0 to 100 (0 no effect, 100 complete control), read-out: Plant response rating, Speedwell): 100%
- plant injury at 16 g/ha (spring barley; Hordeum vulgare, post-emergence, Postemergence, 16 g ai/ha, scale 0 to 100 (0 no effect, 100 complete control), read-out: Plant response rating, Barley, Spring): 10%
- plant injury at 31 g/ha (spring barley; Hordeum vulgare, post-emergence, Postemergence, 31 g ai/ha, scale 0 to 100 (0 no effect, 100 complete control), read-out: Plant response rating, Barley, Spring): 20%
- plant injury at 62 g/ha (spring barley; Hordeum vulgare, post-emergence, Postemergence, 62 g ai/ha, scale 0 to 100 (0 no effect, 100 complete control), read-out: Plant response rating, Barley, Spring): 25%
- plant injury at 125 g/ha (spring barley; Hordeum vulgare, post-emergence, Postemergence, 125 g ai/ha, scale 0 to 100 (0 no effect, 100 complete control), read-out: Plant response rating, Barley, Spring): 25%
- plant injury at 16 g/ha (winter barley; Hordeum vulgare, post-emergence, Postemergence, 16 g ai/ha, scale 0 to 100 (0 no effect, 100 complete control), read-out: Plant response rating, Barley, Winter): 20%
- plant injury at 31 g/ha (winter barley; Hordeum vulgare, post-emergence, Postemergence, 31 g ai/ha, scale 0 to 100 (0 no effect, 100 complete control), read-out: Plant response rating, Barley, Winter): 20%
- plant injury at 62 g/ha (winter barley; Hordeum vulgare, post-emergence, Postemergence, 62 g ai/ha, scale 0 to 100 (0 no effect, 100 complete control), read-out: Plant response rating, Barley, Winter): 25%
- plant injury at 125 g/ha (winter barley; Hordeum vulgare, post-emergence, Postemergence, 125 g ai/ha, scale 0 to 100 (0 no effect, 100 complete control), read-out: Plant response rating, Barley, Winter): 35%
- pest or weed control at 16 g/ha (deadnettle; Lamium amplexicaule, post-emergence, 16 g ai/ha, scale 0-100, read-out: Plant response rating, Deadnettle): 100%
- pest or weed control at 31 g/ha (deadnettle; Lamium amplexicaule, post-emergence, 31 g ai/ha, scale 0 to 100 (0 no effect, 100 complete control), read-out: Plant response rating, Deadnettle): 100%
- pest or weed control at 62 g/ha (deadnettle; Lamium amplexicaule, post-emergence, 62 g ai/ha, scale 0 to 100 (0 no effect, 100 complete control), read-out: Plant response rating, Deadnettle): 100%
- pest or weed control at 125 g/ha (deadnettle; Lamium amplexicaule, post-emergence, 125 g ai/ha, scale 0 to 100 (0 no effect, 100 complete control), read-out: Plant response rating, Deadnettle): 100%
- pest or weed control at 16 g/ha (blackgrass; Alopecurus myosuroides, pre-emergence, 16 g ai/ha, scale 0 (no effect) to 100 (complete control), read-out: Plant response rating, Blackgrass): 40%
- pest or weed control at 31 g/ha (blackgrass; Alopecurus myosuroides, pre-emergence, 31 g ai/ha, scale 0-100, read-out: Plant response rating, Blackgrass): 65%
- pest or weed control at 62 g/ha (blackgrass; Alopecurus myosuroides, pre-emergence, 62 g ai/ha, scale 0-100, read-out: Plant response rating, Blackgrass): 90%
- pest or weed control at 125 g/ha (blackgrass; Alopecurus myosuroides, pre-emergence, 125 g ai/ha, scale 0-100, read-out: Plant response rating, Blackgrass): 95%

Structure (SMILES): FCc1cccc(Oc2ncc(Cl)cn2)c1-n1cc(I)cn1 [Compound 245]
- Plant response rating, Oilseed Rape (oilseed rape; 16 g ai/ha, scale 0-100): 30
- Plant response rating, Oilseed Rape (oilseed rape; [1]): 45
- Plant response rating, Oilseed Rape (oilseed rape; [2]): 60
- Plant response rating, Oilseed Rape (oilseed rape; [3]): 75
- Plant response rating, Ryegrass, Italian (Italian ryegrass; [4]): 15
- Plant response rating, Ryegrass, Italian (Italian ryegrass; 31 g ai/ha, scale 0 (no effect) to 100 (complete control)): 15
- Plant response rating, Ryegrass, Italian (Italian ryegrass; 125 g ai/ha, scale 0-100): 40
- Plant response rating, Oat, Wild (wild oat; [4]): 0
- Plant response rating, Oat, Wild (wild oat; 31 g ai/ha, scale 0-100): 5
- Plant response rating, Oat, Wild (wild oat; 62 g ai/ha, scale 0-100): 20
- Plant response rating, Oat, Wild (wild oat; 125 g ai/ha, scale 0-100): 15
- Plant response rating, Field Violet (field violet; 16 g ai/ha, scale 0-100): 25
- Plant response rating, Field Violet (field violet; [1]): 80
- Plant response rating, Field Violet (field violet; [2]): 90
- Plant response rating, Field Violet (field violet; [3]): 90
- Plant response rating, Speedwell (speedwell; 16 g ai/ha, scale 0-100): 100
- Plant response rating, Speedwell (speedwell; [1]): 100
- Plant response rating, Speedwell (speedwell; [2]): 100
- Plant response rating, Speedwell (speedwell; [3]): 100
- Plant response rating, Barley, Spring (spring barley; [5]): 20
- Plant response rating, Barley, Spring (spring barley; [6]): 20
- Plant response rating, Barley, Spring (spring barley; [7]): 30
- Plant response rating, Barley, Spring (spring barley; [8]): 10
- Plant response rating, Barley, Winter (winter barley; [5]): 20
- Plant response rating, Barley, Winter (winter barley; [6]): 15
- Plant response rating, Barley, Winter (winter barley; [7]): 20
- Plant response rating, Barley, Winter (winter barley; [8]): 25
- Plant response rating, Deadnettle (deadnettle; 16 g ai/ha, scale 0-100): 100
- Plant response rating, Deadnettle (deadnettle; [1]): 100
- Plant response rating, Deadnettle (deadnettle; [2]): 100
- Plant response rating, Deadnettle (deadnettle; [3]): 100
- Plant response rating, Blackgrass (blackgrass; [4]): 0
- Plant response rating, Blackgrass (blackgrass; 31 g ai/ha, scale 0-100): 0
- Plant response rating, Blackgrass (blackgrass; 62 g ai/ha, scale 0-100): 10
- Plant response rating, Blackgrass (blackgrass; 125 g ai/ha, scale 0-100): 65

Source: patent US9695155B2, “Herbicidal substituted pyrimidinyloxy benzene compounds” (E. I. DU PONT DE NEMOURS AND COMPANY, priority 2013, dated 2017)
